Reference: PubChem BioAssay (NCI)
“And” between values parts separate entries of the source, which are not always exact repeats. Identical values can stand only once.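 Protocol summary: plate cells (96-well), add compound at 5 concentrations, incubate 48 h, interpolate endpoints linearly. Here, GI50 denotes the concentration required for 50% inhibition of growth. At the TGI there is no net growth.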

Legend:
Assay in all cases: NCI tumour cell line growth inhibition, 48 h
[1] = tested on: IGROV1 ovarian
[2] = tested on: SK-OV-3 ovarian
[3] = tested on: MDA-MB-435
[4] = tested on: HOP-92 NSCLC
[5] = tested on: BT-549 breast
[6] = tested on: UACC-62 melanoma
[7] = tested on: DU-145 prostate
[8] = tested on: SK-MEL-5 melanoma
[9] = tested on: OVCAR-5 ovarian
[10] = tested on: COLO 205 colon

| Structure (SMILES) | GI50 [1] [µM] | TGI [1] [µM] | GI50 [2] [µM] | TGI [2] [µM] | GI50 [3] [µM] | TGI [3] | GI50 [4] [µM] | TGI [4] [µM] | GI50 [5] [µM] | TGI [5] [µM] | GI50 [6] [µM] | TGI [6] | GI50 [7] [µM] | TGI [7] [µM] | GI50 [8] [µM] | TGI [8] [µM] | GI50 [9] [µM] | TGI [9] [µM] | GI50 [10] [µM] | TGI [10] |
| --- | --- | --- | --- | --- | --- | --- | --- | --- | --- | --- | --- | --- | --- | --- | --- | --- | --- | --- | --- | --- |
| OCC1OC(N2C=C(c3nc4ccccc4s3)C3C=CC=CC32)C(O)C(O)C1O (stereo not given) | 19.8 | > 50 | 41.1 | > 50 | 11.8 | 28.1 µM | 9.51 | 30.2 | 16.5 | > 50 | 12.5 | 36.8 µM | 20.6 | > 50 | 12.1 | 30.5 | 16.5 | > 50 | 9.38 | 20.9 µM |
| COc1cc(CSc2nc3ccc(Cl)cc3c(=O)n2Cc2ccccc2)cc(OC)c1OC | 10.2 | > 100 | 3.23 | 17.7 | 0.406 | 11.6 µM | 1.93 | 9.16 | 6.19 | 90.6 | 2.34 | 25.2 µM | 4.46 | > 100 | 2.41 | 17.1 | 7 | > 100 | 1.56 | 4.05 µM |
| Clc1cc(Br)ccc1-c1ccc(CNCC2CCNCC2)o1 | 1.9 | 3.86 | 1.99 | 3.86 | 1.84 | 3.46 µM | 1.4 | 4.9 | 1.73 | 3.5 | 1.69 | 3.21 µM | 1.75 | 3.21 | 1.76 | 3.2 | 1.89 | 3.93 | 1.89 | 3.51 µM |
| COC(=O)c1c2c(c(C)[n+]([O-])c1C)C(=O)C(NCc1ccccc1)=CC2=O | 1.71 | 4.42 | 2.81 | 9.63 | 1.81 | 3.3 µM | 2.8 | 6.61 | 4.19 | 16 | 1.8 | 3.56 µM | 3.5 | 11.2 | 1.23 | 2.5 | 2.58 | 6.22 | 0.977 | 2.67 µM |
| O=S(O)O.O=S(O)O.[Co].[NH2-].[NH2-].[NH2-].[NH2-] | > 100 | > 100 | > 100 | > 100 | > 100 | > 100 µM | > 100 | > 100 | > 100 | > 100 | > 100 | > 100 µM | > 100 | > 100 | > 100 | > 100 | > 100 | > 100 | > 100 | > 100 µM |
| CC1(C)C(=O)/C=C\C(=O)C(C)(C)C2=CC=C(O2)C(C)(C)C(=O)C(Br)C(Br)C(=O)C(C)(C)C2=CC=C1O2 (stereo not given) | – | > 85.6 | – | > 100 | – | > 100 µM | – | > 100 | – | 76.5 | – | 49.3 µM | – | > 100 | – | > 100 | – | > 100 | – | > 100 µM |
| c1cc(OCCN2CCCC2)ccc1CNc1ccc2nc(CCC3CCCCC3)[nH]c2c1 | 2.12 | 6.43 | 2.15 | 4.5 | 1.62 | 3.08 µM | 0.471 | 2.25 | 1.56 | 3.17 | 1.85 | 3.33 µM | 3.43 | 12.4 | 1.68 | 3.1 | 2.19 | 6.59 | 1.7 | 3.35 µM |
| CCCCCN(CCCCC)CCC[C@@H](C)[C@H]1CC[C@H]2[C@@H]3[C@H](OCCCN)C[C@@H]4C[C@H](OCCCN)CC[C@]4(C)[C@H]3C[C@H](OCCCN)[C@]12C | 2.72 | 15 | 15.9 | 34.9 | 1.98 | 4.93 µM | 0.68 | 6.45 | 3.27 | 8.37 | 1.56 | 6.41 µM | 11.1 | 23.6 | 3.85 | 16.2 | 10.3 | 23.4 | 5.89 | 22.8 µM |
| COc1ccc(Sc2[nH]c(C=O)c3ccccc23)cc1 | 13.8 | 37.6 | 4.99 | 24.9 | 2.68 | 11.5 µM | 5.52 | 21 | 2.03 | 12.1 | 11 | 26.1 µM | 6.25 | 21.6 | 12.9 | 25.5 | 6.1 | 28.3 | 0.664 | 6 µM |
| O=C(Nc1ccc(I)cc1F)c1cc(Br)ccc1O | 0.412 | > 100 | 0.681 | 2.92 | 0.652 | 4.64 µM | 0.162 | 0.516 | 0.37 | 1.76 | 0.25 | 0.812 µM | 0.865 | > 67.8 | 0.251 | 0.714 | 4.01 | > 100 | 3.83 | 13.4 µM |
| CC(C)[C@@]12C[C@@H](OC(=O)C3CO3)[C@@](C)(O1)[C@@H]1CC[C@@H](C)[C@H]1[C@@H]2OC(=O)/C=C/c1ccccc1 (stereo not given in full) | 24.3 | 87.2 | 18.6 | 46.8 | 18.4 | 38.3 µM | 12.4 | 27.7 | 11.3 | 27.8 | 14.9 | 34.4 µM | 26.4 | 72.9 | 16.5 | 30.2 | 19.3 | 47.9 | 27.8 | > 100 µM |
| COc1ccc(C)c2sc(N(Cc3cccnc3)C(=O)c3ccc(C#N)cc3)nc12 | 52 | > 100 | > 100 | > 100 | 35.9 | > 100 µM | 20.3 | > 100 | 35 | > 100 | 31.1 | > 100 µM | 51.9 | > 100 | 24.4 | 93.8 | 47.5 | > 100 | 24.7 | 70 µM |
| CC[C@]12CN3CCc4c([nH]c5ccccc45)[C@@](C(=O)OC)(c4cc5c(cc4OC)N(C)[C@H]4[C@@](O)(C(=O)OC)[C@H](OC(C)=O)[C@]6(CC)C=CCN7CC[C@]54[C@@H]76)CC(C3)[C@H]1O2 (stereo not given in full) | 0.154 | > 100 | – | > 100 | 0.0161 | 0.0252 µM and 0.0878 µM | 1.29 | > 100 | 0.343 | – | 0.224 | 76.9 µM and > 50 µM | 0.121 | – | 0.0888 | 0.887 | 1.19 | > 100 | 0.092 | 1.03 µM and 0.387 µM |
| CCOC(=O)c1c(NN2CCN(CC(F)(F)F)CC2)oc(/C=C2\C=Nc3ncccc32)c1O | 7.43 | 47.8 | 2.93 | 19.8 | 3.36 | 16.8 µM | 12.9 | 40.9 | 1.59 | 5.68 | 4.83 | 15.1 µM | 4.75 | 23.7 | 2.55 | 10.6 | 19.3 | 67.5 | 0.76 | 11.1 µM |
| COc1ccc(C2c3ccc4ccccc4c3Oc3ncn(CCCn4ccnc4)c(=N)c32)cc1OC (stereo not given) | 6.04 | 21.8 | 5.8 | 18.4 | 1.99 | 4.06 µM | 1.3 | 6.64 | 3.41 | 13.5 | 1.9 | 3.74 µM | 5.49 | 18.2 | 1.66 | 3.11 | 4.55 | 17.8 | 2.04 | 4.51 µM |
| COc1ccc(-c2cnc(-c3ccc(OC)cc3)n2-c2cc(OC)c(OC)c(OC)c2)cc1 | 28.3 | > 100 | 23.1 | 72.3 | 31.2 | > 100 µM | 19.7 | 52.1 | 28.6 | 86.1 | 17.3 | 45 µM | 30.7 | 78.2 | 22.7 | 67.4 | 45.9 | > 100 | 56 | > 100 µM |
| CCn1nc(C2CCN(C(=O)CCO)CC2)nc1-c1cnc(N)c(-c2nnc(C(C)(C)C)o2)n1 | 0.245 | > 100 | 0.286 | 2.74 | 13 | > 100 µM | 0.208 | > 100 | 7.28 | > 100 | 2.07 | > 100 µM | 16.7 | > 100 | 11.5 | 31.3 | 3.17 | > 100 | 2.85 | 21.5 µM |
| N#Cc1c(N)nc2c(c1-c1ccc(Cl)cc1)COc1ccc(F)cc1-2 | 14.8 | > 100 | > 100 | > 100 | 20.7 | 45.2 µM | 31.6 | > 100 | 22 | 51.2 | 15.1 | 34.2 µM | 29.9 | > 100 | 20.6 | 37.6 | 27.5 | > 100 | – | – |
| CCOc1ccccc1/C=N\N=C(N/N=C/c1ccccc1OCC)N/N=C/c1ccccc1OCC | 3.04 | > 100 | 1.65 | 6.15 | 3.44 | > 100 µM | 1.24 | 5.63 | 2.67 | > 100 | 2.05 | > 100 µM | 2.45 | > 100 | 1.69 | 3.71 | 2.52 | > 100 | 1.43 | 2.98 µM |
| COc1ccc2c(n1)Sc1nc3ccccc3nc1N2 | – | > 100 | – | > 100 | – | > 100 µM | – | > 100 | – | > 100 | – | 43.4 µM | – | > 100 | – | > 100 | – | > 100 | – | > 100 µM |
| COc1cc2c(/C=C3\C(=O)N(C)c4ccccc43)c[nH]c2cc1C | 7.87 | > 69.6 | 8.35 | > 100 | 1.62 | 12.1 µM | 15.7 | 79.4 | 7.53 | 71.9 | 1.29 | > 100 µM | 6.77 | > 66.3 | 2.36 | > 40 | 7.94 | > 63.9 | 1.58 | > 100 µM |
| Cc1[nH]c2ccccc2c1CO | – | – | 35.1 | > 100 | 16.8 | 36.6 µM | 14.6 | 40.9 | 18.4 | 40.3 | 17.2 | 37.4 µM | 0.0457 | 18.1 | 18.1 | 36.9 | 24.4 | 96.9 | 14.2 | 27.3 µM |
| CCCCCCCCCCCCCCCCn1cc[n+](C)c1 | 0.201 | 0.517 | 0.941 | 3.17 | 0.358 | 1.49 µM | 0.34 | 1.68 | 0.444 | 1.61 | 0.538 | 1.88 µM | 0.651 | 1.94 | – | – | 0.329 | 1.64 | 0.27 | – |
| CCCCCCOC(=O)CC1=C(C)/C(=C/c2[nH]c(-c3ccc[nH]3)cc2OC)N=C1C | 0.178 | 1.23 | 0.279 | 1.24 | 0.0463 | 1.12 µM | 0.0332 | 0.351 | 0.0865 | 1.59 | – | – | 0.0728 | 1.86 | – | – | 0.371 | 2 | 0.087 | 1.09 µM |
| COc1ccc(O)c(/C=N\Nc2ccccc2)c1 | – | – | – | > 100 | – | 43.8 µM | – | > 100 | – | > 100 | – | 12.3 µM | – | > 100 | – | > 100 | – | > 100 | – | 26.2 µM |
